Laboratory results from patent US5480905A, “Benzodioxane derivatives” (Chugai Seiyaku Kabushiki Kaisha, priority 1991, dated 1996).
Entries after “also recorded” stand apart in the source; their conditions may differ.

Experiments:
Format in all cases: in vivo, rat
[1] = tested on: S.D. line male rats; assay: Antidepressant effect, compelled swim test (Porsolt), time over which rats remain motionless; design: Antidepressant effect / Antidepressant effect, longevity: scale not given here; settings: for inhibition in vivo at 20 mg/kg / ED50: Rattus norvegicus, po, 0.5 h; for inhibition in vivo at 20 mg/kg: 30 min before swim, read-out: Antidepressant effect, Efficacy; for ED50: peroral, probit method, read-out: ED50, dose reducing motionless time by one half vs control
Method: An antidepression test was conducted in accordance with the method of Porsolt et al. (Europ. J. Pharmacol., 47, 379-391, 1978). Stated more specifically, 7-wk old S.D. line male rats were placed in a glass cylinder (18 cm^.phi. ×40 cm^H) for 15 min. The cylinder was filled with water (25° C.) to a depth of 15 cm. Thereafter, the rats were placed in a hot environment (32° C.) for 15 min before they were returned to the cage. Twenty-four hours later, the rats were compelled again to swim in the same cylinder for 5 min and the total time over which the rats remained motionless was measured. A test drug was administered perorally to each animal 30 min before it was compelled to swim for 5 min. Antidepressant agents are known to be capable of specifically reducing the time over which the rats would remain motionless (Psyehopharmaeol., 83, 1-16, 1984, and ibid., 94, 147-160, 1988). The antidepressant effect was calculated by the following formula: [formula]
(§1) The procedure of Test Examples 2 and 3 were repeated except that test compounds were administered perorally in a dose of 10 mg/kg.
(§2) The procedures of Test Example 2 and 3 were repeated, except that test compounds were administered perorally in a dose of 20 mg/kg to check the longevity of their antianxiety and antidepressant effects for 0.5, 2 and 4 h.

[2] = tested on: S.D. line male rats; assay: Antianxiety effect, water drinking under punishment (Vogel); design: Antianxiety effect / Antianxiety effect, longevity: unit not given here; settings: for change in vivo at 20 mg/kg: Rattus norvegicus, po, read-out: Antianxiety effect, Efficacy
Method: Antianxiety test was conducted in accordance with a method adapted from the method of Vogel et al. (Psychopharmacol., 21, 1-7, 1971). Stated more specifically, S.D. line male rats weighing 250-300 g were entirely kept from water for 24 h and then placed in a concrete experimental box. […] The bottom of the box was made of a stainless steel grid, from which electric shock (0.2 mA, 0.5 sec) could be applied to the limbs of rats. The test schedule was as follows: first, the rats were acclimatized to the experimental box and trained for drinking water; this was done for 3 min without electric shock. The quantity of water drunk by the rats was then measured (under non-punishment). Then, the rats were kept from drinking water for 24 h. Thereafter, the quantity of water drunk by each rat was measured (before administration of test compound) under such conditions that an electric shock was applied each time a rat drank one water drop (under punishment).Thirty minutes later, a test drug was administered perorally and after an additional 20 min, the quantity of water drunk by each rat was again measured under punishment (after administration of test compound). The quantity of water drunk by rats will decrease under punishment but it is known that the initial level can be restored by administering an antianxiety agent.
The antianxiety effect of a test compound was calculated by the following formula: [formula]
as §1, §2

[3] = tested on: S.D. line male rats; assay: Sedative action, amount of spontaneous movement (Animex); settings: for Amount of Spontaneous Movement: control 405.2 ± 47.7; for Sedative action / spontaneous movement: peroral 20-60 mg/kg
Method: Seven-week old male S.D. line rats were administered a test drug perorally and after the passage of 30 min, the amount of spontaneous movement of the rats was measured for 10 min by means of Animex.

[4] = tested on: apomorphine induced stereotypic behavior; assay: Antidopamine action, apomorphine induced stereotypic behavior; settings: for Apomorphine Induced Stereotypic Behavior, sum of scores: maximum of 24; for Antidopamine action: peroral, apomorphine 0.5 mg/kg s.c.
Method: Seven-week old male S.D. line rats were administered a test drug perorally and after the passage of 30 min, the dopamine agonist apomorphine was injected subcutaneously in an amount of 0.5 mg/kg. For the subsequent 5-30 min period, the intensity of stereotypic behavior that was induced in the rats by apomorphine was measured six times at 5-min intervals by a scoring method and the sum of the scores was determined (for a maximum of 24).

[5] = peroral 20 mg/kg, 0.5 h after administration
[6] = peroral 20 mg/kg, 2.0 h after administration
[7] = peroral 20 mg/kg, 4.0 h after administration
[8] = 20 mg/kg peroral, control 14.4 ± 0.9 (Comp. 1: 16.0 ± 1.1)

SMILES	inhibition in vivo at 20 mg/kg ([1]; peroral 20 mg/kg)	ED50 [1]	Antidepressant effect, longevity [1, 5]	Antidepressant effect, longevity [1, 6]	Antidepressant effect, longevity [1, 7]	change in vivo at 20 mg/kg ([2]; peroral 20 mg/kg)	Antianxiety effect, longevity [2, 5]	Antianxiety effect, longevity [2, 6]	Antianxiety effect, longevity [2, 7]	Amount of Spontaneous Movement ([3]; 20 mg/kg peroral)	Amount of Spontaneous Movement ([3]; 40 mg/kg peroral)	Amount of Spontaneous Movement ([3]; 60 mg/kg peroral)	Sedative action / spontaneous movement [3]	Apomorphine Induced Stereotypic Behavior, sum of scores [4, 8]	Antidopamine action [4]	also measured
Cc1cccc2c1OC(CNCCNC(=O)C13CC4CC(CC(C4)C1)C3)CO2 (centres unmarked) [Compound 1, N-{[2-(8-methyl-1,4-benzodioxan-2-ylmethyl)amino]ethyl}tricyclo[3,3,1,1^3, ^7]decane-1-carboxyamide]	72 ± 5.5%	8.1 mg/kg	71.8	73.9	40.7	85.4 ± 10.3%	52.8	48.2	29.5	442.0 Counts/10 min	401.8 Counts/10 min	319.4 Counts/10 min	no appreciable sedative action	14.7	no effect at all when it was used in a dose of 20 mg/kg; also recorded: no antidopamine action	Antidepressant effect ([1]; peroral 10 mg/kg): 66.7 ± 12.6; Antidepressant effect ([1]; peroral 20 mg/kg): better antidepressant effects than WY-50324; Antidepressant activity relative to WY-50324 (ED50) ([1]; ratio of ED50): three times the activity of WY-50324; Antianxiety effect ([2]; peroral 10 mg/kg): 42.4 ± 2.1; Antianxiety and antidepressant effects ([2]; peroral 10 mg/kg, Table 6): superiority; Antianxiety effect ([2]; peroral 20 mg/kg): better effects than MDL-73005
O=C(NCCN1CCN(c2ncccn2)CC1)C12CC3CC(CC(C3)C1)C2 [WY-50324, reference compound]	58.1 ± 5%	24.3 mg/kg	56.7	17.3	0.7	46.9 ± 6.3%	57.8	24.8	11.2	315.5 Counts/10 min	361.9 Counts/10 min	401.6 Counts/10 min	no appreciable sedative action	12.1	showed an inhibitory action in high doses	Apomorphine Induced Stereotypic Behavior, sum of scores ([4]; 10 mg/kg peroral, control 14.4 ± 0.9): 14.7; Apomorphine Induced Stereotypic Behavior, sum of scores ([4]; 40 mg/kg peroral, control 14.4 ± 0.9): 10.9
